Measurements taken from PMC8943889, “Synthetic studies with the brevicidine and laterocidine lipopeptide antibiotics including analogues with enhanced properties and in vivo efficacy” (Chemical Science, 2022).
In brackets after ≈: the same amount, converted by molar mass. Read-outs that look alike come from different tables or passages of the source. Positions of bridges follow the written chain, without caps; N, C: chain ends. Non-standard residues stand in square brackets, D forms with d. Residues, ends and D or L forms follow the SMILES beside them. ξ: configuration not given here. *: point of attachment. Hexanoyl(4ξ-Me) = CCC(C)CCC(=O)*; dOrn = NCCC[C@@H](N)C(=O)O; Orn = NCCC[C@H](N)C(=O)O

Experiments:
A. baumannii 2018-006 = assay type: cell-based
Method: (§1) Minimum inhibitory concentrations (MICs) were determined by broth microdilution according to CLSI guidelines in triplicate. Blood agar plates were inoculated with glycerol stocks of E. coli ATCC 25922, E. coli MCR-1 (clinical isolate from Utrecht Medical Centre, NL), E. coli EQAS MCR-2 (clinical isolate from Wageningen University and Research, NL), K. pneumoniae ATCC 11228, K. pneumoniae ATCC 13883, K. pneumonia 2048 (clnical isolate from Vrije Universiteit Amsterdam Medical Centre, NL), K. pneumonia JS-123 (clinical isolate from Utrecht Medical […]
(§2) (clinical isolate from Rijksinstituut voor Volksgezondheid en Milieu, NL), A. baumannii MDR (clinical isolate from Vrije Universiteit Amsterdam Medical Centre, NL), P. aeruginosa ATCC 27853, P. aeruginosa PAO1, P. aeruginosa NRZ-03961 (Reference strain from Das Nationale Referenzzentrum für gramnegative Krankenhauserreger, DE), P. aeruginosa M-120 (clinical isolate from Leiden University Medical Centre, NL) and S. aureus USA300 (clinical isolate from Texas Children's Hospital, USA). E. coli 25922 MCR1 was grown on LB agar supplemented with kanamycin. The inoculated agar plates were then incubated for 16 h at 37°C . Individually grown colonies were subsequently used to inoculate 3 mL aliquots of TSB that were then incubated at 37°C with shaking at 220 rpm. In parallel, the lipopeptide antibiotics to be assessed were serially diluted with Mueller-Hinton broth (MHB) in polypropylene 96-well plates (50 µL in each well).
(§3) Once the OD600 of the bacterial suspensions reached 0.5, the bacteria were diluted with MHB (final concentration 2 × 10^5 CFU mL−1) and added to the microplates containing the test compounds (50 µL to each well, final volume: 100 µL). The well-plates were sealed with an adhesive membrane and after 16 h of incubation at 37°C with shaking at 220 rpm the wells were visually inspected for bacterial growth. MIC values reported are based on three technical replicates and defined as the lowest concentration of the compound that prevented visible growth of bacteria. […]

A. baumannii ATCC 17961 = assay type: cell-based
Method: as §1, §2, §3

A. baumannii ATCC 17978 = assay type: cell-based
Method: as §1, §2, §3

E. coli ATCC 25922 [1] = assay type: cell-based
Method: as §1, §2, §3

K. pneumoniae 2048 = assay type: cell-based
Method: as §1, §2, §3

K. pneumoniae ATCC 11228 = assay type: cell-based
Method: as §1, §2, §3

K. pneumoniae ATCC 13883 = assay type: cell-based
Method: as §1, §2, §3

K. pneumoniae JS-123 = assay type: cell-based
Method: as §1, §2, §3

P. aeruginosa ATCC 27853 = assay type: cell-based
Method: as §1, §2, §3

P. aeruginosa M-120 = assay type: cell-based
Method: as §1, §2, §3

P. aeruginosa NRZ-03961 = assay type: cell-based
Method: as §1, §2, §3

P. aeruginosa PAO1 = assay type: cell-based
Method: as §1, §2, §3

S. aureus USA300 = assay type: cell-based
Method: as §1, §2, §3

Gram-negative bacteria = experiment: MIC comparison across the bacterial panel of Table 1; assay type: cell-based; conditions: enantiomer versus natural product, strains of Table 1
Method: as §1
as §2, with “Individually grown colonies were subsequently used to inoculate 3 mL aliquots of TSB that were then incubated at 37°C with shaking at 220 rpm.” left out, “well). […]” for “well).”

A. baumannii MDR = assay type: cell-based
Method: as §1, §2, §3

E. coli ATCC 25922 MCR-1 = assay type: cell-based; conditions: Ec ATCC 25922 MCR-1; broth microdilution (CLSI), MHB, 16 h 37 °C, three technical replicates
Method: as §1, §2, §3

E. coli EQAS MCR-2 = assay type: cell-based; conditions: Ec EQAS MCR-2; broth microdilution (CLSI), MHB, 16 h 37 °C, three technical replicates
Method: as §1, §2, §3

[2] = system: E. coli MCR-1 (clinical isolate); assay type: cell-based
Method: as §1, §2, §3

E. coli ATCC 25922 [3] = experiment: Neutropenic mouse thigh infection efficacy study; assay type: in vivo, mice (ICR); conditions: neutropenic mice, E. coli ATCC 25922 thigh infection, 20 mg kg^−1 SC q8h
Method: In vivo tolerability and efficacy studies
Ethical Issues. Animal experiments were performed under UK Home Office Licences P89653310 (tolerability and PK) and PA67E0BAA (thigh efficacy), with local ethical committee clearance.
Animal Strain. Mice used in these studies were supplied by Charles River (Margate UK) and were specific pathogen free. The strain of mice used was ICR (also known as CD1 Mice) which is a well characterized outbred murine strain. Mice (male) were 11-15 g on receipt and were allowed to acclimatise for at least 7 days.
Animal Housing. Mice were housed in sterilised individual ventilated cages exposing the mice at all times to HEPA filtered sterile air. Mice had free access to food and water and had aspen chip bedding (changed at least once weekly). The room temperature was 22°C +/ - 1°C, with a relative humidity of 60% and maximum background noise of 56 dB. Mice were exposed to 12 h light/dark […]
Test compounds. Compound 6 was dissolved in water for injection in which it formed a clear […]
colourless solution. […]
Compound 6 was administered via subcutaneous administration route at 3 8-h […]
The mice used in the tolerability study were naïve and were not immunosuppressed or infected.
Efficacy study. The in vivo efficacy of compound 6 was assessed in a mouse thigh abscess model where both thighs of each mouse were infected with E. coli ATCC 25922
Immunosuppression. […]
Endpoints. One h and 20.5 (planned 25) h post-infection, the clinical condition of all animals was assessed prior to humane euthanasia using pentobarbitone overdose, and the thighs were removed and weighed. Thigh samples were homogenized in 3mL ice cold sterile PBS; the homogenates were quantitatively cultured onto CLED agar and incubated at 37°C for 18 - 24 h before colonies were […]
Data analysis. The data from the culture burdens were analysed using appropriate non-parametric statistical models (Kruskal-Wallis using Conover-Inman to make all pairwise comparisons between groups) with StatsDirect software v. […]

Molecule | MIC (A. baumannii 2018-006; 2018-006, 16 h) | MIC (A. baumannii ATCC 17961; ATCC 17961, 16 h) | MIC (A. baumannii ATCC 17978; ATCC 17978, 16 h) | MIC (E. coli ATCC 25922 [1]; ATCC 25922, 16 h) | MIC (K. pneumoniae 2048; 2048, 16 h) | MIC (K. pneumoniae ATCC 11228; ATCC 11228, 16 h) | MIC (K. pneumoniae ATCC 13883; ATCC 13883, 16 h) | MIC (K. pneumoniae JS-123; JS-123, 16 h) | MIC (P. aeruginosa ATCC 27853; ATCC 27853, 16 h) | MIC (P. aeruginosa M-120; M-120, 16 h) | MIC (P. aeruginosa NRZ-03961; NRZ-03961, 16 h) | MIC (P. aeruginosa PAO1; PAO1, 16 h) | MIC (S. aureus USA300; USA300, 16 h) | MIC (E. coli EQAS MCR-2) | other results
CCC(C)CCC(=O)N[C@@H](CC(N)=O)C(=O)N[C@@H](Cc1ccc(O)cc1)C(=O)N[C@@H](Cc1c[nH]c2ccccc12)C(=O)N[C@@H](CCCN)C(=O)N[C@H](CCCN)C(=O)NCC(=O)N[C@@H](CCCN)C(=O)N[C@H](Cc1c[nH]c2ccccc12)C(=O)N[C@H]1C(=O)N[C@H]([C@H](C)CC)C(=O)NCC(=O)N[C@H](CO)C(=O)O[C@H]1C (single isomer, unassigned) [ent-Brev (ent-1), ent-brevicidine] | 8 to 16 µg/mL | 32 µg/mL (≈ 21.1 µM) | 16 to 32 µg/mL | 16 µg/mL (≈ 10.5 µM) | 32 µg/mL (≈ 21.1 µM) | 32 µg/mL (≈ 21.1 µM) | 32 µg/mL (≈ 21.1 µM) | 8 µg/mL (≈ 5.26 µM) | 16 µg/mL (≈ 10.5 µM) | 16 µg/mL (≈ 10.5 µM) | 32 µg/mL (≈ 21.1 µM) | 32 µg/mL (≈ 21.1 µM) | >64 µg/mL | – | MIC values higher than the natural products (Gram-negative bacteria): 8- to 32 fold
CCC(C)CCC(=O)N[C@H](CC(N)=O)C(=O)N[C@H](Cc1ccc(O)cc1)C(=O)N[C@H](Cc1c[nH]c2ccccc12)C(=O)N[C@H](CCCN)C(=O)N[C@@H](CCCN)C(=O)NCC(=O)N[C@H](CCCN)C(=O)N[C@@H](Cc1c[nH]c2ccccc12)C(=O)N[C@H]1COC(=O)[C@H](CO)NC(=O)CNC(=O)[C@H]([C@@H](C)CC)NC1=O (stereo partly drawn) [Ser9-Brev (3), Ser9-Brevicidine] ({Hexanoyl(4ξ-Me)}-[dN][dY][dW][dOrn][Orn]G[dOrn]WSIGS; ester 9-C) | 2 µg/mL (≈ 1.33 µM) | 0.5 to 1 µg/mL | 2 µg/mL (≈ 1.33 µM) | 4 µg/mL (≈ 2.66 µM) | 4 µg/mL (≈ 2.66 µM) | 2 µg/mL (≈ 1.33 µM) | 2 µg/mL (≈ 1.33 µM) | 2 µg/mL (≈ 1.33 µM) | 1 µg/mL (≈ 0.664 µM) | 2 µg/mL (≈ 1.33 µM) | 4 µg/mL (≈ 2.66 µM) | 2 to 4 µg/mL | >64 µg/mL | 4 to 8 µg/mL | MIC (A. baumannii MDR; MDR, 16 h): 1 to 2 µg/mL; MIC (E. coli ATCC 25922 MCR-1): 4 µg/mL (≈ 2.66 µM); MIC ([2]; MCR-1 (clinical isolate, 16 h)): 2 µg/mL (≈ 1.33 µM)
polymyxin B [PolyB, reference compound] | – | – | – | – | – | – | – | – | – | – | – | – | – | 4 µg/mL | MIC (A. baumannii 2018-006; Ab 2018-006, broth microdilution (CLSI), MHB, 16 h 37 °C, three technical replicates): <0.25 µg/mL; MIC (A. baumannii ATCC 17961; Ab ATCC 17961, broth microdilution (CLSI), MHB, 16 h 37 °C, three technical replicates): <0.25 µg/mL; MIC (A. baumannii ATCC 17978; Ab ATCC 17978, broth microdilution (CLSI), MHB, 16 h 37 °C, three technical replicates): <0.25 µg/mL; MIC (A. baumannii MDR; Ab MDR, broth microdilution (CLSI), MHB, 16 h 37 °C, three technical replicates): <0.25 µg/mL; MIC (E. coli ATCC 25922 [1]; Ec ATCC 25922, broth microdilution (CLSI), MHB, 2 × 10^5 CFU/mL, 16 h 37 °C, visual read-out, three technical replicates): 0.5 µg/mL; MIC ([2]; Ec MCR-1, broth microdilution (CLSI), MHB, 16 h 37 °C, three technical replicates): 2 to 4 µg/mL; MIC (K. pneumoniae 2048; Kp 2048, broth microdilution (CLSI), MHB, 16 h 37 °C, three technical replicates): 0.5 to 1 µg/mL; MIC (K. pneumoniae ATCC 11228; Kp ATCC 11228, broth microdilution (CLSI), MHB, 16 h 37 °C, three technical replicates): <0.25 µg/mL; MIC (K. pneumoniae ATCC 13883; Kp ATCC 13883, broth microdilution (CLSI), MHB, 16 h 37 °C, three technical replicates): 0.25 µg/mL; MIC (K. pneumoniae JS-123; Kp JS-123, broth microdilution (CLSI), MHB, 16 h 37 °C, three technical replicates): <0.25 µg/mL; MIC (P. aeruginosa ATCC 27853; Pa ATCC 27853, broth microdilution (CLSI), MHB, 16 h 37 °C, three technical replicates): <0.25 µg/mL; MIC (P. aeruginosa M-120; Pa M-120, broth microdilution (CLSI), MHB, 16 h 37 °C, three technical replicates): <0.25 µg/mL; MIC (P. aeruginosa NRZ-03961; Pa NRZ-03961, broth microdilution (CLSI), MHB, 16 h 37 °C, three technical replicates): 0.25 to 0.5 µg/mL; MIC (P. aeruginosa PAO1; Pa PAO1, broth microdilution (CLSI), MHB, 16 h 37 °C, three technical replicates): 0.25 to 0.5 µg/mL; MIC (S. aureus USA300; Sa USA300, broth microdilution (CLSI), MHB, 16 h 37 °C, three technical replicates): 64 µg/mL; antibacterial effect in thigh infection, compared with Dap9-Lat (6) at 40 mg kg^−1 (E. coli ATCC 25922 [3]): comparable
